According to ChEMBL document CHEMBL1201862, “PubChem BioAssay data set” (2004):
Active and inactive are the calls of the source.

Assays:
[1] = human group III sPLA2 inhibitors, dose response, biochemical, QFRET, IC50 (AID 743457);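 further: green fluorescence rise as the enzyme cleaves BODIPY PC-A2 in liposomes; potency for inhibition of the enzyme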
Hexokinase HKDC1 = Hexokinase HKDC1 (Homo sapiens, UniProt Q2TB90); assay: HKDC1 hexokinase activators, dose response, biochemical, W721R variant (AID 504730); format: functional
[2] = biological target: DNA dC->dU-editing enzyme APOBEC-3G (Homo sapiens, UniProt Q9HC16); assay: Dose Response confirmation of small molecule APOBEC3G DNA Deaminase Inhibitors via a fluorescence-based single-stranded DNA deaminase assay. [Related pubchem assays (depositor defined):AID493012, AID493028]; format: functional
[3] = biological target: Glucose-6-phosphate 1-dehydrogenase (Homo sapiens, UniProt P11413); assay: human G6PD enzyme inhibitors, dose response, selectivity assay for P. falciparum G6PD inhibitor project, biochemical, fluorescence (AID 504792); format: functional
[4] = biological target: DNA dC->dU-editing enzyme APOBEC-3A (Homo sapiens, UniProt P31941); assay: APOBEC3A DNA deaminase inhibitors, dose response, biochemical (AID 504722); format: functional
Hexokinase-1 = Hexokinase-1 (Homo sapiens, UniProt P19367); assay: hexokinase 1 activators, dose response, selectivity assay for HKDC1 activator project, biochemical (AID 504762); format: functional
Genome polyprotein = Genome polyprotein (dengue virus type 2, UniProt P29990); assay: Dengue-2 NS5 methyltransferase inhibitors, primary screen, biochemical, confirmation dose response (AID 588689); format: functional
CHO = assay: cytotoxicity in TLR9-MyD88 CHO cells, dose response, cytotoxicity control for TLR9-MyD88 binding inhibitor project, cell-based, luminescence (AID 588339); format: functional, hamster; details: Cricetulus griseus;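 further: CHO cells stably coexpressing TLR9 and MyD88 fusions from primary screen; compound exposure lasted 48 hours before viability readout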
[5] = biological target: T1, Endoribonuclease toxin MazF (Escherichia coli K-12, UniProt P0AE70); assay: fluorescent RNA oligo signal without MazF, dose response, counter-screen for MazEF activator project, biochemical, fluorescence, single-stranded RNase substrate (AID 588502); format: functional
T1 sequence (P0AE70 whole entry): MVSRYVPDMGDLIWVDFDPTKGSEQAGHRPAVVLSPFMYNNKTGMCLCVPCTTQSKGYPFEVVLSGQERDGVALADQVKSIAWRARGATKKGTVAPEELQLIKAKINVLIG

Beta Lactamase = Beta Lactamase (Pseudomonas aeruginosa, UniProt Q932Y6); assay: beta-lactamase reporter inhibitor potency, dose response, artefact control for TLR9-MyD88 binding inhibitor project, BLA reporter cells, FRET fluorescence (AID 588341); format: cell-based;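 further: cell based assay in CHO-K1 cells stably expressing beta-lactamase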
[6] = biological target: T1, Endoribonuclease toxin MazF; assay: MazF toxin RNase activators, dose response, biochemical, fluorescence, single-stranded RNA substrate, uHTS hits (AID 588481); format: functional
HeLa = assay: HeLa cell cytotoxicity, dose response, cytotoxicity control for MITF activator project, CellTiter-Glo luminescence, cherry-pick samples (AID 540259); format: functional, cell-based; details: Homo sapiens
A-375 [7] = assay: A375 melanoma cell viability reduction, dose response, counter-screen for MITF modulator project, cherry-pick samples, set 2 (AID 540335); format: functional, cell-based; details: Homo sapiens
A-375 [8] = assay: MITF: Counter assay: A375 proliferation Measured in Cell-Based System Using Plate Reader - 2084-03_Inhibitor_Dose_DryPowder_Activity. [Related pubchem assays (depositor defined):AID488944]; format: functional; details: Homo sapiens
[9] = THP-1 cell cytotoxicity, dose response, cytotoxicity control for non-replicating M. tuberculosis project (AID 489025); format: functional
[10] = Fluorescence-based cell-based high throughput dose response assay for inhibitors of the interaction of nucleotide-binding oligomerization domain containing 2 (NOD2) and the receptor-interacting serine-threonine kinase 2 (RIPK2).; format: functional; details: Homo sapiens
cells = format: functional
[11] = Vero E6 cell cytotoxicity, dose response, cytotoxicity control for non-replicating M. tuberculosis project, secondary assay (AID 492998); format: functional, VeroE6; details: Vero C1008
[12] = biological target: T2, Heat shock factor protein 1 (Mus musculus, UniProt P38532); assay: HSF1 potentiators in luciferase reporter cells, confirmation, cell-based, NIH3T3, luminescence, dose retest (AID 435004); format: functional;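 further: stress induced by proteasome inhibitor MG132 added 30 min after compound; luciferase reporter driven by HSF1 response element in NIH3T3 cells; actives raise luminescence as potentiators of the MG132 stress response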
T2 sequence (P38532 whole entry): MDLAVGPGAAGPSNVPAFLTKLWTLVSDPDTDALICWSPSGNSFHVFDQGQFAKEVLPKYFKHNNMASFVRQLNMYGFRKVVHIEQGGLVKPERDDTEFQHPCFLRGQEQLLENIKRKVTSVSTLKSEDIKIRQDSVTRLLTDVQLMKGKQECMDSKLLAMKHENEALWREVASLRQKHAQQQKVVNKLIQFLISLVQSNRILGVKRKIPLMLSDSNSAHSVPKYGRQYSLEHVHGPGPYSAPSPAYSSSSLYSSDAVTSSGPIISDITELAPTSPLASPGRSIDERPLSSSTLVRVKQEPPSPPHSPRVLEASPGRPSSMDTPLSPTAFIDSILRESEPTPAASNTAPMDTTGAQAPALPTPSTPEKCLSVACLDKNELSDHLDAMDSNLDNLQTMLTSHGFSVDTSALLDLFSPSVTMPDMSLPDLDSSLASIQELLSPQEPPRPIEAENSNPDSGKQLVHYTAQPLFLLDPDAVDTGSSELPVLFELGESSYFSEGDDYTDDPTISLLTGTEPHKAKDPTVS

[13] = Luminescence Cell-Based Dose Retest to Confirm Inhibitors of Cancer Stem Cells. [Related pubchem assays (depositor defined):AID2717, AID2721]; format: functional; details: Homo sapiens
[14] = biological target: Heat shock protein HSP 90-alpha (Homo sapiens, UniProt P07900); format: functional, organism-based
[15] = C. albicans growth with fluconazole, confirmation, fluorescence, retest (AID 2467); format: functional, cell-based
[16] = biological target: ATP-dependent molecular chaperone HSP82 (Candida albicans (strain WO-1) (Yeast), UniProt C4YTQ8); assay: loss of DOC-induced GRE-beta-galactosidase reporter signal, dose response, Hsp90 inhibitor project, S. cerevisiae, luminescence (AID 2400); format: functional, cell-based;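 further: beta-galactosidase luminescence from glucocorticoid response element reporter as proxy for Hsp90 function; inhibitor potency where signal loss means Hsp90 inhibition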
[17] = biological target: Serine/threonine-protein phosphatase (Candida dubliniensis (strain CD36 / CBS 7987 / NCPF 3949 / NRRLY-17841) (Yeast), UniProt B9W6M3); assay: calcineurin pathway inhibitors in yeast reporter, dose response, S. cerevisiae, CDRE-lacZ, luminescence, secondary (AID 2388); format: functional, cell-based;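 further: yeast reporter cells carrying a calcineurin-responsive lacZ construct stimulated with calcium chloride; luminescent beta-galactosidase reporter signal in whole cells rather than isolated phosphatase activity; potency for inhibition where a drop in reporter signal means calcineurin blockade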
[18] = NIH-3T3 fibroblast cytotoxicity, dose response, cytotoxicity control, cell-based, fluorescence, Alamar Blue, secondary assay (AID 2327); format: functional;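 further: NIH-3T3 mouse fibroblasts cultured with fluconazole at 8 µg/mL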

Beta Lactamase, sequence (Q932Y6 whole entry): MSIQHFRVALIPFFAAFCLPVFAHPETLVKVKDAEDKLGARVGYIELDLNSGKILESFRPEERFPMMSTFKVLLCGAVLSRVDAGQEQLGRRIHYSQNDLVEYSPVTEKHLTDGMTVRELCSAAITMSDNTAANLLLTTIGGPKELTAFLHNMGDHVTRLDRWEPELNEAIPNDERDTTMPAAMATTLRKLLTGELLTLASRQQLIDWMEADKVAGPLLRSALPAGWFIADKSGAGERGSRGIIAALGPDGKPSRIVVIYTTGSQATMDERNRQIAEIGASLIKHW
DNA dC->dU-editing enzyme APOBEC-3A, sequence (P31941 whole entry): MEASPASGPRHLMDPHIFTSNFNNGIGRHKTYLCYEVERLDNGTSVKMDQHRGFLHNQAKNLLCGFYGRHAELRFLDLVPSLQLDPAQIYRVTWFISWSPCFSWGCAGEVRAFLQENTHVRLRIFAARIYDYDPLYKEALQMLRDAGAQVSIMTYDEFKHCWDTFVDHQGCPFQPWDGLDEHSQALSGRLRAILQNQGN
Genome polyprotein, sequence (P29990 2492-3391 limits assumed): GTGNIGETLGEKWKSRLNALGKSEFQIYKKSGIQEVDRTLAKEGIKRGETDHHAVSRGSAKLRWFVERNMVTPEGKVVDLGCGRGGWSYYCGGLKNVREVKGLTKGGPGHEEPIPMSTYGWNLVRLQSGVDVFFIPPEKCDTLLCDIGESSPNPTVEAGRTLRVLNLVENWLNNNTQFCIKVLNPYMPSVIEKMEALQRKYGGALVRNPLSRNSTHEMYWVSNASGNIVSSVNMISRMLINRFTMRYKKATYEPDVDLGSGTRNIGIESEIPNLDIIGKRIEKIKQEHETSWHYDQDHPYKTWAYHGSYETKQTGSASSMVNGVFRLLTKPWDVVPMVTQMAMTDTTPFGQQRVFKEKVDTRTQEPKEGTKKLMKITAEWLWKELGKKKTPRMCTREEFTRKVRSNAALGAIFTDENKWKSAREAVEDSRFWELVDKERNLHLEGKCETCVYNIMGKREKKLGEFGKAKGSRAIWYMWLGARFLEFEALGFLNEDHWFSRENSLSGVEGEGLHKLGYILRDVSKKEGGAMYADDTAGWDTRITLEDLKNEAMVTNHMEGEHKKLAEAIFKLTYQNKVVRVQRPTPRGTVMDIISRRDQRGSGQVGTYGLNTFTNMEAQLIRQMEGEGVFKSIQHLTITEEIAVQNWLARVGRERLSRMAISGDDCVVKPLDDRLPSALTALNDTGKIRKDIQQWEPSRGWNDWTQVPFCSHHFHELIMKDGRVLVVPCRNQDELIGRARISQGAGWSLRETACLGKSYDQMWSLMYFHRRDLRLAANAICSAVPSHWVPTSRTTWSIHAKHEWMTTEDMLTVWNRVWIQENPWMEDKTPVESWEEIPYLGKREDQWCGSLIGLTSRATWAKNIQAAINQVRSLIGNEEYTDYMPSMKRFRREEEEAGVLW
DNA dC->dU-editing enzyme APOBEC-3G, sequence (Q9HC16 whole entry): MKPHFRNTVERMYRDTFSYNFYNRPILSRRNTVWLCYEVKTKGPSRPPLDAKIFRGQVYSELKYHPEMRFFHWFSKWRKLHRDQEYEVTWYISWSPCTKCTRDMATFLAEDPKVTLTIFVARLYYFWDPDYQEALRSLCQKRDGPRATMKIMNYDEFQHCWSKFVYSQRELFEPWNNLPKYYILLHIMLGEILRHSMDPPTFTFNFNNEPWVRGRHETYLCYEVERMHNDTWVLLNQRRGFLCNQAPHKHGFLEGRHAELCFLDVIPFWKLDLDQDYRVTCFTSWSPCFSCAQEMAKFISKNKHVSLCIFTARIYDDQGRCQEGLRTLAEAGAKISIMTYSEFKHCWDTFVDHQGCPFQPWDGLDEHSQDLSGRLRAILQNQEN
Glucose-6-phosphate 1-dehydrogenase, sequence (P11413 whole entry): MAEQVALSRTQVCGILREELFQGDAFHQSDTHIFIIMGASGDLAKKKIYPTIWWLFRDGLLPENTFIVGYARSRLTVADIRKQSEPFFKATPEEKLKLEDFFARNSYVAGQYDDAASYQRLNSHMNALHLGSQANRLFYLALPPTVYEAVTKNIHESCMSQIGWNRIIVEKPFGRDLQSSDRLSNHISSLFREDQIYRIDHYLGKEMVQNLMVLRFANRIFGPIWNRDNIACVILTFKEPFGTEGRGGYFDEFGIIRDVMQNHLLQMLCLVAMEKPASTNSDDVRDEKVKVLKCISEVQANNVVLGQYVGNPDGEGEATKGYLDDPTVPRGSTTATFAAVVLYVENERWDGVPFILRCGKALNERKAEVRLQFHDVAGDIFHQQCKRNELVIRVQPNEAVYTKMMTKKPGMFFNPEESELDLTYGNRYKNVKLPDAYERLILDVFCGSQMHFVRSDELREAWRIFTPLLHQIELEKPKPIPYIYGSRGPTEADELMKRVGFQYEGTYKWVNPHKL
Hexokinase-1, sequence (P19367 whole entry): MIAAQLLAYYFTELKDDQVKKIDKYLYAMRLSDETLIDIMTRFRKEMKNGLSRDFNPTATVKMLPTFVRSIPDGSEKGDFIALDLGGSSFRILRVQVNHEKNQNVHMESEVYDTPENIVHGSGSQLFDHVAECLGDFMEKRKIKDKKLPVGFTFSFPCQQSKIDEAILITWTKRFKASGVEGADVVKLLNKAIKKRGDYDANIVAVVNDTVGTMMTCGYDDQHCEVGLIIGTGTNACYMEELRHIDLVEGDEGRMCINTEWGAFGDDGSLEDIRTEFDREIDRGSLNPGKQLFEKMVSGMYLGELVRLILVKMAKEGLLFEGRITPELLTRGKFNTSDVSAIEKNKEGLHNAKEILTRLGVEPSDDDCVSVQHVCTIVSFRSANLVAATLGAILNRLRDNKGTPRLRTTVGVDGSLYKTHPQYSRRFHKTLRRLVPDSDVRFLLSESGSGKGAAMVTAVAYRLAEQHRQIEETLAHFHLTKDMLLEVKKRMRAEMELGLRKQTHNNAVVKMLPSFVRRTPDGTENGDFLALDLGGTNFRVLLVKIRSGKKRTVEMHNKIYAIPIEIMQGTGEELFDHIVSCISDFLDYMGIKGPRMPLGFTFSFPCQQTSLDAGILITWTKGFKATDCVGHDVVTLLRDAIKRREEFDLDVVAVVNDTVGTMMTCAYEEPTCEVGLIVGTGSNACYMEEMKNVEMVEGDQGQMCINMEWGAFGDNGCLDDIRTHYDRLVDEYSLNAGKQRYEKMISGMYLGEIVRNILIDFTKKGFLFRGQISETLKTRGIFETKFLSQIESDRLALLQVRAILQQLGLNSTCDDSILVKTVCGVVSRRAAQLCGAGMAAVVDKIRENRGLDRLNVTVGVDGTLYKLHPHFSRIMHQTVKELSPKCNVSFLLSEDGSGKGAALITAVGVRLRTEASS
Serine/threonine-protein phosphatase, sequence (B9W6M3 whole entry): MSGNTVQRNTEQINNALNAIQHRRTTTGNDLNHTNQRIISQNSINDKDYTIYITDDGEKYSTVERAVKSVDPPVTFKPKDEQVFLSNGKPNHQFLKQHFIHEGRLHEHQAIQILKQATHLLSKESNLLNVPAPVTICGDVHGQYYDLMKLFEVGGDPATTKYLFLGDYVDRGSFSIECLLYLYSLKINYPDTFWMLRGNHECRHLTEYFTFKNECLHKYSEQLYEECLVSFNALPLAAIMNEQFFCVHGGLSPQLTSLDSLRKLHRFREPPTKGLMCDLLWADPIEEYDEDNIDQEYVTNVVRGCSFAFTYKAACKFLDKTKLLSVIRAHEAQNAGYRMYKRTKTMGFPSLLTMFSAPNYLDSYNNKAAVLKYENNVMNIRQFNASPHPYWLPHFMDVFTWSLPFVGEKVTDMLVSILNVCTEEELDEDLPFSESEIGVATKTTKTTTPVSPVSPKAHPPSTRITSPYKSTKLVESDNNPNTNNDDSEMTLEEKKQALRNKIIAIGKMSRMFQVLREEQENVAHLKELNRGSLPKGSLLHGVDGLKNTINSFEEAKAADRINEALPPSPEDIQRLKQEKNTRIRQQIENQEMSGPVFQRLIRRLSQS
ATP-dependent molecular chaperone HSP82, sequence (C4YTQ8 whole entry): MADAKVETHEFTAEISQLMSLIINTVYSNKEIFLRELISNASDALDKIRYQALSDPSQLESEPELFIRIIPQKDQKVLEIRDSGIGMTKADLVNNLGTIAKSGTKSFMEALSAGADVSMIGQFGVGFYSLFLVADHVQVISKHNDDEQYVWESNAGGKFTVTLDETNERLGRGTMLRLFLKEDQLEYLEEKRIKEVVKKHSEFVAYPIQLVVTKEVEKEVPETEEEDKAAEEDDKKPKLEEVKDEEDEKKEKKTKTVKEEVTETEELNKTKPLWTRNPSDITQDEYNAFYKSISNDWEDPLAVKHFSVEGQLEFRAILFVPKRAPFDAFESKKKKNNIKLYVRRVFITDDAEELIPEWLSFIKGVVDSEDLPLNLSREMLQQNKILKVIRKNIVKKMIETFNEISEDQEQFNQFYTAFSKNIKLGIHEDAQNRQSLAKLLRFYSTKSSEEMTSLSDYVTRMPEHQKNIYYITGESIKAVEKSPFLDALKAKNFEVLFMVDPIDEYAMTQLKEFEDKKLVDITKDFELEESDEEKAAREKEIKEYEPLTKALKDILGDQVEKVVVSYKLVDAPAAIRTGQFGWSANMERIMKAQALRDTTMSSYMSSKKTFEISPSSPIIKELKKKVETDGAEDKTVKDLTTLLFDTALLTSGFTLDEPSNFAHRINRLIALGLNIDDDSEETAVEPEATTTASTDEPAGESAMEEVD

COc1cc(N=c2ssnc2Cl)c(OC)cc1Cl
IC50 [1]: 92.1 µM (inactive)
EC50 (Hexokinase HKDC1): 27.2 µM (inactive)
IC50 [2]: 8.83 µM (active)
IC50 [3]: 68.8 µM (inactive)
IC50 [4]: > 100 µM (inactive)
EC50 (Hexokinase-1): 41.9 µM (inactive)
IC50 (Genome polyprotein): > 100 µM (active)

CCN(CC)c1ccc(C=NNc2ccc([N+](=O)[O-])cn2)cc1
IC50 (CHO): 24.3 µM (inactive)
EC50 [5]: 70.2 µM (inactive)
IC50 (Beta Lactamase): 4.5 µM (active)
EC50 [6]: > 99 µM (inactive)

COC(=O)c1c(C)[nH]c(/C=N/Nc2ccccc2)c1C
AC50 (HeLa): 103 µM (active)
AC50 (A-375 [7]): > 35 µM (active)
AC50 (A-375 [8]): > 35 µM (active)

C=CCN1C(=O)/C(=C2/C(=O)Nc3ccccc32)c2ccccc21
CC50 [9]: 19.7 µM (active)
IC50 [10]: 2.1 µM (active)
IC50 (cells): 0.4 µM (active)
IC50 (CHO): 3.64 µM (active)
CC50 [11]: 3.31 µM (active)
EC50 [12]: 8.91 µM (active)
AC50 [13]: 4.32 µM (active)
AC50 [14]: 1.17 µM (active)
IC50 (Beta Lactamase): > 49.8 µM (inactive)

O=C(Nc1cccc(-c2cn3ccccc3n2)c1)c1cccc(Cl)c1
EC50 [15]: 1.05 µM (active)
EC50 [16]: > 160 µM (inactive)
EC50 [17]: > 180 µM (inactive)
EC50 [18]: 11 µM (active)
